{"source": "patent US20070224167A1", "about": "“Novel HCV inhibitor combinations and methods” (priority 2006, published 2007)", "system": "replicon variants with reduced susceptibility to HCV-796, including C316Y", "assay": "Susceptibility of HCV-796 resistant replicons to SCH 503034", "assay_type": "cell-based", "conditions": "72 hours, vs wild-type replicon", "method": "The antiviral activity of SCH 503034 against the replicon variants that have shown reduced susceptibility to HCV-796 is evaluated. Briefly, the replicon-containing cells are seeded in 96-well plates at a subconfluent density (7000 cells/well) in a medium containing 2% FBS without G418. SCH 503034 solubilized with 100% dimethylsulfoxide (DMSO) is prepared in a […], 2-fold dilution series, with a final DMSO concentration of 0.5% and a final volume of […]. The final concentrations for SCH 503034 are […], 6.3, 12.5, 25, 50, 100, 200, 400, 800, 1600 and 3200 nM. The plate is incubated for 72 hours at 37° C. and 5% CO2 before quantification of HCV and GAPDH RNAs."}
{"smiles": "CC(C)(C)NC(=O)N[C@H](C(=O)N1C[C@H]2[C@@H]([C@H]1C(=O)NC(CC1CCC1)C(=O)C(N)=O)C2(C)C)C(C)(C)C", "note": "(stereo partly drawn) [SCH 503034, (1R,5S)—N-[3-amino-1-(cyclobutylmethyl)-2,3-dioxopropyl]-3-[2(S)-[[[(1,1-dimethylethyl)amino]carbonyl]amino]-3,3-dimethyl-1-oxobutyl]-6,6-dimethyl-3-azabicyclo[3.1.0]hexan-2(S)-carboxamide]", "values": [{"measurement": "Activity of SCH 503034 on HCV-796 resistant replicons", "result": "active"}, {"measurement": "Activity of SCH 503034 on HCV-796 resistant replicons", "setting": "listed as SCH-503034", "result": "equivalent inhibitory activity"}]}
